Earlier results as cited in patent US20130177630A1 (priority 2012, published 2013).

Tested on: fibrolamellar hepatocellular carcinoma
Settings: patient with fibrolamellar hepatocellular carcinoma

## O=C(O)C(=O)CBr [3-bromopyruvate]
  side effects: severe side effects
  treatment outcome (survival): life-extension characteristics
